Assay [1] concerns OVCAR4 cells. The experiment in a line: Proliferation assay, parental vs CRISPR CBX2 knock out cells. In kind it is cell-based, human. To be noted: OVCAR4 CRISPR/Cas9 CBX2 KO vs parental. On the procedure: Examples 8-12: All drugs were suspended in DMSO at the concentration of 50 mM and aliquoted and stored in -80 C. 1000 cells were seeded in 96 well plate a day prior. 10 fold dilution of drugs in the cultureing media supplemented with FBS and penicillin/Streptomycin was added and cells were cultured until the cells in the no-drug added wells became confluent (5-8 days). Cells were washed with PBS twice and fixed with fixation buffer (10% Methanol and 10% Acetic acid in PBS) followed by staining with Cristal Violet staining solution (0.4% Cristal Violet in 20% Ethanol). […] CBX2 CRISPR knocked-out OVCAR4 cells were created by the University of Colorado Functional Genomics Facility using the IDT Alt-R RNP system. ALT-R crRNA and ATL-R tracrRNA were suspended at 100 μmol/L in nuclease-free IDTE pH7.5. The same volumes of ALT-R crRNA and ATL-R tracrRNA were mixed to prepare gRNA complex at 50μmol/L, heated at 95° C. for 5 minutes, and then were cooled to room temperature. The RNP complex was prepared with 150 pmol of gRNA and 125 pmol of Alt-R Cas9-NLS in final volume of 5 μL in PBS. Cells were harvested in Necleofector solution SF with supplement (Lonza, Basel, Switzerland) at a concentration of 1×10^6 cells per 100 μL. The transfection mix was made with 100 μL of cell suspension, 2.5 μL each of RNP complex, and 0.6 μL of 100 μL of Alt-R Cas9 Electroporation enhancer. […]

Assay [2] relates to ID8 Trp53-/- Brca2-/- cells. The experiment in a line: Syngeneic mouse model, CBX2 intact vs CBX2 knock down tumors. It counts as in vivo, C57BL/6J mice. The conditions noted are these: 30 mg/kg PO, 28 days. Here is the method:
To further elucidate the dependence of alisertib on CBX2, an in vivo study was performed using a syngeneic mouse model with CBX2 intact compared to CBX2 knock down, undergoing treatment with alisertib. Measurements of mRNA expression confirmed that CBX2 knock down was effective (FIG. 15 Panel A). The mice were treated with vehicle control or 30 mg/kg alisertib for 28 days (FIG. 15 Panel B). Tumor-bearing mice were necropsied at the end of treatment and omental weight, number of dissemination sites, and total tumor weight were quantified (FIG. 15 Panels C-E, respectively). […] It can be concluded therefore, that the loss of CBX2 expression in an ovarian cancer model attenuates the anti-tumor response to alisertib. […] Tissue was also collected and processed for further analysis. […] In the second study, mice were treated with 30 mg/kg alisertib, PO, for 28 days, as described above. Due to the weight loss observed in the first study, we reduced treatment from 7 days per week to 5 days per week.

Assay [3] relates to TMEFF1 expression in OVCAR4 cells. Briefly: TMEFF1 (CBX2 target gene) expression by qPCR. It counts as cell-based, human. The conditions noted are these: qPCR after treatment of OVCAR4 cells. Here is the method:
Ten candidate inhibitors were evaluated based on their ability to inhibit HGSOC cell viability. Dose response assays of all 10 inhibitors were conducted in OVCAR4, PEO1, and COV504 HGSOC cell lines to determine half inhibitory concentration (IC50) (FIG. 12 Panel A). We explored ability of these compounds to downregulate a CBX2 target gene, transmembrane protein with EGF-like and two follistatine-like domains 1 (TMEFF1) (FIG. 12 Panel B).
RNA was isolated using RNAeasy Plus Mini Kit (Qiagen, Hilden Germany) according to the manufacturer's protocol. NanoDrop spectrophotometry was used to measure concentration of extracted RNA. Luna Universal One-step RT qPCR kit (New England BioLabs, Ipswich, MA) was used on BioRad CFX96 (Bio-Rad, Hercules, CA). HPRT or GAPDH were used as internal control as stated in figure legend.

The subject of assay [4] is OVCAR4 cells. The experiment in a line: Ultra low dilution analysis (ULDA) of stemness. It counts as cell-based, human. Here is the method: An ultralow dilutional assay (ULDA) utilizing the OVCAR4 HGSOC cell line was used to evaluate the functional impact of four inhibitors. The number of spheroids were plotted against the IC50 dose of each agent (FIG. 13 Panel B). The more significant the decrease in spheroids formation capacity, the more significant the decrease in stemness associated with treatment. […] Cells were trypsinized and filtered with a 40-micron filter, creating a single cell suspension. Cells were plated in 96 wells ultra-low attachment plates (CORNING #3474 this is flat bottom, and CORNING #7007: used u bottom for COV504) in 200 ul CSC media (DMEM/F12, 1× B27, 4% FBS, 100 U/ml penicillin/streptomycin, 20 ng/ml human EGF, 20 ng/ml human FGF). After 3 days, 100 μl of medium was gently taken out, then added drugs to final IC50 concentration. The media with drug was replaced with half volume every 4-5 days and cultured for 3 weeks. […] After 4 hours spheroid existence and color were evaluated under the microscope (Incucyte). Observation of purple spheroids confirmed the presence of live cells and were scored as 1. If no spheroids appreciated, or if purple spheroids were not observed it was scored as 0. […] The stem cell frequency was calculated using ultra low limiting dilution analysis (PMID: 19567251).

Assay [5] concerns Histone H2A Lys119 ubiquitination (H2AK119ub). The experiment in a line: Western blot for H2AK119ub as marker of CBX2/PRC1 activity. In kind it is cell-based, human. On the procedure: CBX2 is a known subunit of PRC1, which is critical for normal development and functions as a transcriptional repressor. PRC1 is understood to have histone ubiquitin ligase activity, specifically targeting Histone H2A […] ubiquitination ([…]). In order to evaluate the impact of treatment with alisertib on the broader PRC1 complex, […] was used as a surrogate marker of CBX2 activity in the PRC1. OVCAR4 (***confirm) cells were treated with IC50 doses of each of the 10 candidate inhibitors, a Western blot for […] was compared to a beta-actin control (FIG. 12 Panel C). […] Finally, PRC1 target […] was used to evaluate the impact of treatment with alisertib on the broader PRC1 complex. OVCAR4 and PEO1 cells were treated with increasing doses of aliserib and western blots were performed to evaluate […] as a marker of PRC1 activity (FIG. 14 Panel F). Cell lysis was performed using radioimmunoprecipitation assay (RIPA) buffer (150 mM sodium chloride, Triton X-100, 0.5% sodium deoxycholate, 0.1% SDS [sodium dodecyl sulfate], 50 mM Tris, pH 8.0) supplemented with complete EDTA-free protease inhibitor cocktail (Roche), as well as NaF and NaV. Protein was quantified using bicinchoninic acid (BCA) protein assay (Thermo Fisher Scientific, Waltham, MA) and spectrophotometry. An 8% SDS polyacrylamide gel resolving gel was created with a 4% stacking gel. […]

As to `COc1cc(Nc2ncc3c(n2)-c2ccc(Cl)cc2C(c2c(F)cccc2OC)=NC3)ccc1C(=O)O` [alisertib], the “IC50 in CBX2 KO cells compared to the parental cells” value in the assay on OVCAR4 cells [1] is given as “ten times higher”. Also, in assay [2], the “number of dissemination sites: anti-tumor response in CBX2 knock down mice vs CBX2 intact mice” value is reported as “significant attenuation”, the “omental weight: anti-tumor response in CBX2 knock down mice vs CBX2 intact mice” value was “significant attenuation” and the “total tumor weight: anti-tumor response in CBX2 knock down mice vs CBX2 intact mice” value is recorded as “significant attenuation”. Moreover, in assay [3], the TMEFF1 expression result is “significantly inhibited”. The “impact on stemness through ULDA on knocking out CBX2” value in the assay with OVCAR4 cells [4] (OVCAR4 CBX2 KO vs parental) is reported as “attenuated impact”. The stem cell frequency entry in the assay on OVCAR4 cells [4] (treatment at IC50) is given as “decreased”. Moreover, in assay [5] (OVCAR4 and PEO1 cells, increasing doses), the “H2AK119ub, surrogate marker of PRC1 activity” value is on record as “decreased in parallel with CBX2”. Moreover, the “Histone H2A Lys119 ubiquitination” value in assay [5] (OVCAR4 cells, IC50 dose, vs beta-actin control) is recorded as “decreased”.
